The source of these data is ChEMBL document CHEMBL5291721, “A preclinical secondary pharmacology resource illuminates target-adverse drug reaction associations of marketed drugs” (Nat Commun, 2023).

Bounds are passed on as bounds.

Assay [1] concerns the target Gamma-aminobutyric acid receptor subunit alpha-1 (Rattus norvegicus, UniProt P62813). In kind it is functional.
Assay [2] concerns the target T1, Alpha-2A adrenergic receptor (Homo sapiens, UniProt P08913).
T1 sequence (P08913 whole entry): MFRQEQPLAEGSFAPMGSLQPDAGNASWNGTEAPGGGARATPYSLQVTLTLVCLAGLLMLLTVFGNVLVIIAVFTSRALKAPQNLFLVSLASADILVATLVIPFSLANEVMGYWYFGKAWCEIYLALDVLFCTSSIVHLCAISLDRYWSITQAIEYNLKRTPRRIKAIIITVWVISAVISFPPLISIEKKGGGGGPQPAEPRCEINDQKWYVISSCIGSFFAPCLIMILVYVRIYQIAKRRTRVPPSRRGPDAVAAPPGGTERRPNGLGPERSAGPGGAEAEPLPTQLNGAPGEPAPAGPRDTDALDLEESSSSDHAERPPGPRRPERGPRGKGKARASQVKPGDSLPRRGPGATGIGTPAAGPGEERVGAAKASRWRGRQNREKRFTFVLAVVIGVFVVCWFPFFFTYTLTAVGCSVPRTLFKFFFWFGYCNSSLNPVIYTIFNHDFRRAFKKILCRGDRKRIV
In kind it is functional, cell-based.

Assay [3] concerns the target Kappa-type opioid receptor (Homo sapiens, UniProt P41145).
Assay [4] concerns the target Melanocortin receptor 3 (Homo sapiens, UniProt P41968).
Assay [5] deals with D(1A) dopamine receptor (Homo sapiens, UniProt P21728). Type of assay: functional, cell-based.
The target of assay [6] is T2, 5-hydroxytryptamine receptor 3A (Homo sapiens, UniProt P46098).
T2 sequence (P46098 whole entry): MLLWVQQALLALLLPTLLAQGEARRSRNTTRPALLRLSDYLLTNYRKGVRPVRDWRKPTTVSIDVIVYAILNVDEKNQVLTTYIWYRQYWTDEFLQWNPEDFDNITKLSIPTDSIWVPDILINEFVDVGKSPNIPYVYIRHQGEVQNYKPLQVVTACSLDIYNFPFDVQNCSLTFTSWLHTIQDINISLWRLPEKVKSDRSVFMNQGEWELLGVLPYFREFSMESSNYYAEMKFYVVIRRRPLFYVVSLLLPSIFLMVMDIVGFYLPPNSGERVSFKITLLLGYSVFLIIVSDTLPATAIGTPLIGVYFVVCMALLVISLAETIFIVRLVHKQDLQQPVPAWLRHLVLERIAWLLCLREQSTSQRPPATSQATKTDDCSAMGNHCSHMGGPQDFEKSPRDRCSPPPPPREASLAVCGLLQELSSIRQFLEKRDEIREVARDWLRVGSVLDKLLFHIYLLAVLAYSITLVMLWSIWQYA
Type of assay: functional.

Assay [7] has as its target T3, Muscarinic acetylcholine receptor M2 (Homo sapiens, UniProt P08172).
T3 sequence (P08172 whole entry): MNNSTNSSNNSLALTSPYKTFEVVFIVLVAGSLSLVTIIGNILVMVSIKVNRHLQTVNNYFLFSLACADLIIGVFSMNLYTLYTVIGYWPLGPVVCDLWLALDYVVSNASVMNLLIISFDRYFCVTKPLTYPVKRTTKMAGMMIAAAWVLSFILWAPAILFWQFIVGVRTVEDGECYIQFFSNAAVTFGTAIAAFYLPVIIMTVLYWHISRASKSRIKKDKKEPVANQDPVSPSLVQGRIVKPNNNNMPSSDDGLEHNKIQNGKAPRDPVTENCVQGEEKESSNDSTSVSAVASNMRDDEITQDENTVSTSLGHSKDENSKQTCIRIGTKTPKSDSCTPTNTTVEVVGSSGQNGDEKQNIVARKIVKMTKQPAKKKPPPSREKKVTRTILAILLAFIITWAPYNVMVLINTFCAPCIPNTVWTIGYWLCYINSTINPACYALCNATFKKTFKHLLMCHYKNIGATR
Type of assay: functional, cell-based.

For assay [8], the target named is D(3) dopamine receptor (Homo sapiens, UniProt P35462).
Assay [9] has as its target Glutamate receptor ionotropic, NMDA 1 (Rattus norvegicus, UniProt P35439).
In assay [10] the target is Histamine H2 receptor (Homo sapiens, UniProt P25021). In kind it is functional, cell-based.
Further: assay procedure not described here.

Chain of Melanocortin receptor 3 (P41968 whole entry): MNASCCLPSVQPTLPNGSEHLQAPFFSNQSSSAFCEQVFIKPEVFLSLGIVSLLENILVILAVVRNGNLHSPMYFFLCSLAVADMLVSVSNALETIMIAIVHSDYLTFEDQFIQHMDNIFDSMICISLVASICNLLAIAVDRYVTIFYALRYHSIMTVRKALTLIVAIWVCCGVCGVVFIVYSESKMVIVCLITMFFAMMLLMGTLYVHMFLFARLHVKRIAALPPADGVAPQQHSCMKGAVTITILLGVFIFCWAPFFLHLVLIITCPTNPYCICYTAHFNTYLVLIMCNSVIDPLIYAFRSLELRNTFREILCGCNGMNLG
Chain of D(1A) dopamine receptor (P21728 whole entry): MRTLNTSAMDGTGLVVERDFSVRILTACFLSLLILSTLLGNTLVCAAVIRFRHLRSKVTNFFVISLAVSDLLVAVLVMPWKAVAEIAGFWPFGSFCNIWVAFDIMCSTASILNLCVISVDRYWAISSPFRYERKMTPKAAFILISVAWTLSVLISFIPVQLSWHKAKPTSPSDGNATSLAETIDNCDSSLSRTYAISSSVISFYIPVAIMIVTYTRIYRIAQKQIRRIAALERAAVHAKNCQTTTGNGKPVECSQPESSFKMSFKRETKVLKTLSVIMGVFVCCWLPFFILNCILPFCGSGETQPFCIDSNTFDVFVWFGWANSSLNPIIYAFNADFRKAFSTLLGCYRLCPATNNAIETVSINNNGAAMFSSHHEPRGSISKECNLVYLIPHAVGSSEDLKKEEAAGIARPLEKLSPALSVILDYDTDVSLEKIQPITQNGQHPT
Chain of Histamine H2 receptor (P25021 whole entry): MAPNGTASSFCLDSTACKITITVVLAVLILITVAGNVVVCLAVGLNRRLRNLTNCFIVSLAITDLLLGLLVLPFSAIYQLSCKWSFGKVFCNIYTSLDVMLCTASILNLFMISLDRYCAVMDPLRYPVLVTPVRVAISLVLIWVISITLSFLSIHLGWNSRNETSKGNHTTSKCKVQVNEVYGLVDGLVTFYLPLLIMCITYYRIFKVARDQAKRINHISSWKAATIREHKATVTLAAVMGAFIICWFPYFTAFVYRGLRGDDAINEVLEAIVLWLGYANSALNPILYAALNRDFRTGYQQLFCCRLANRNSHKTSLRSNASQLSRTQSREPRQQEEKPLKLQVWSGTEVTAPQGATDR
Chain of D(3) dopamine receptor (P35462 whole entry): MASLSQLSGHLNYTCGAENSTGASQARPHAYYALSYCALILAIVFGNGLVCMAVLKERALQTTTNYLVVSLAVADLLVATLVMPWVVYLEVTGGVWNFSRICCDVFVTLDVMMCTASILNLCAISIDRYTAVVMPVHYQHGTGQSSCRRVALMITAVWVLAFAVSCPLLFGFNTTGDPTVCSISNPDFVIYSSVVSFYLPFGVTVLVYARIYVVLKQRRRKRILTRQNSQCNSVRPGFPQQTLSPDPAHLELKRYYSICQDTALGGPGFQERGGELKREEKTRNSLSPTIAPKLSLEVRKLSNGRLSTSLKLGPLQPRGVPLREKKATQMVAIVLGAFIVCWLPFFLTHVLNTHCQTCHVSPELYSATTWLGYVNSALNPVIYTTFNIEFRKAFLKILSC
Chain of Gamma-aminobutyric acid receptor subunit alpha-1 (P62813 whole entry): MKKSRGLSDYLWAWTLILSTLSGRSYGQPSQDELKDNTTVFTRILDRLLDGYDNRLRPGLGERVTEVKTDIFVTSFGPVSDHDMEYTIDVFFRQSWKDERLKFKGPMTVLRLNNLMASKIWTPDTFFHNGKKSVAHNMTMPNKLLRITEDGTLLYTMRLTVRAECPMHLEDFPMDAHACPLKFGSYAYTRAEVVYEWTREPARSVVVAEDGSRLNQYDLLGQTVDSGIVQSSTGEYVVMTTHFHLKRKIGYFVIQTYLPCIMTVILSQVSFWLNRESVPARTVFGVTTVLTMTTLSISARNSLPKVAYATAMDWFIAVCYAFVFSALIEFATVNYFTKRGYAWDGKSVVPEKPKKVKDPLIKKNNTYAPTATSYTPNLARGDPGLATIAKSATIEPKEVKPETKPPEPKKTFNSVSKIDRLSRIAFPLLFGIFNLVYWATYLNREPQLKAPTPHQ
Chain of Kappa-type opioid receptor (P41145 whole entry): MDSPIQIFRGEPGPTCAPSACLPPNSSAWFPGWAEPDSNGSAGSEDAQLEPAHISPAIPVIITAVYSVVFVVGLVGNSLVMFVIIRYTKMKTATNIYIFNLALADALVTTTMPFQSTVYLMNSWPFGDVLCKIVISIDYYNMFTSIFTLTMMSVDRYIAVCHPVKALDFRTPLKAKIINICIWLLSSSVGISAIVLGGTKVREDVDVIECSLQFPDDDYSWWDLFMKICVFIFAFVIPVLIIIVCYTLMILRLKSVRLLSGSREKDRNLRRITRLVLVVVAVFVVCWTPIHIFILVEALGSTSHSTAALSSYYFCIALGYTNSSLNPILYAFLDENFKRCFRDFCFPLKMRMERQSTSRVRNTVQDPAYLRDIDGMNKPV

For `O=C(Nc1ccccc1)OCC(CN1CCCCC1)OC(=O)Nc1ccccc1` (centres undefined) [DIPERODON], the AC50 was greater than 10 µM in assay [1]; greater than 10 µM in assay [2]; 1.42 µM in assay [3]; greater than 30 µM in [4]; greater than 10 µM in [5]; greater than 10 µM in assay [6]. Also, the AC50 in assay [7] is greater than 30 µM; in [8], 1.3 µM; in assay [9], greater than 10 µM; in [10], greater than 10 µM.

As to `C[N+](C)(C)CC(=O)O` [BETAINE], the AC50 in [1], in [2], in [4], in [5], in assay [6] and in [7] was greater than 30 µM in each case. Besides, the AC50 in [8], in assay [9] and in [10] was greater than 30 µM in each case.

Take `CCCC(=O)N1CCCN(c2nc(N)c3cc(OC)c(OC)cc3n2)CC1` [BUNAZOSIN]: the AC50 in assay [1] was greater than 30 µM; in [2], 11 µM; in assay [3], greater than 30 µM; in [4] it was greater than 30 µM; in assay [5], greater than 30 µM; in [6], greater than 30 µM. Further, the AC50 was greater than 30 µM in assay [7], 21 µM in [8], greater than 30 µM in [9] and greater than 30 µM in assay [10].

For the compound `NS(=O)(=O)c1cc2c(cc1Cl)NC(CC1CCCC1)NS2(=O)=O` (centres undefined) [CYCLOPENTHIAZIDE], the AC50 in assay [1], in assay [2], in assay [3], in assay [5], in assay [6] and in [8] was greater than 30 µM each time. Moreover, the AC50 in [9] and in [10] was greater than 30 µM throughout.

As for `CC(=O)N(CC(O)CO)c1c(I)c(C(=O)NCC(O)CO)c(I)c(C(=O)NCC(O)CO)c1I` (centres undefined) [IOHEXOL], the AC50 in assay [1] is greater than 10 µM; in [2] it was greater than 10 µM; in assay [3] it was greater than 10 µM; in assay [4], greater than 30 µM; in [5], greater than 10 µM; in [6], greater than 30 µM. Moreover, the AC50 in [7] was greater than 10 µM; in assay [8] it was greater than 30 µM; in assay [9], greater than 10 µM; in assay [10], greater than 10 µM.

For the compound `CC(C)(N)Cc1ccc(Cl)cc1` [CHLORPHENTERMINE], the AC50 was greater than 10 µM in assay [1]; greater than 10 µM in assay [2]; greater than 10 µM in [3]; greater than 30 µM in assay [4]; greater than 10 µM in assay [5]; greater than 30 µM in assay [6]. The AC50 in assay [7] is greater than 10 µM; in [8] it was greater than 30 µM; in assay [9] it was greater than 10 µM; in assay [10] it was greater than 10 µM.

Take `CC(C(O)c1ccc(O)cc1)N1CCC(Cc2ccccc2)CC1` (centres undefined) [IFENPRODIL]: the AC50 was greater than 30 µM in assay [1]; 3.8 µM in assay [2]; 1 µM in assay [3]; greater than 30 µM in assay [4]; greater than 30 µM in assay [5]; greater than 30 µM in [6]. The results for the AC50 in assay [7], in assay [8] and in assay [10] were greater than 30 µM, 1.2 µM and greater than 30 µM, respectively.

Regarding `O=C1CCC(N2C(=O)c3ccccc3C2=O)C(=O)N1` (centres undefined) [THALIDOMIDE], the AC50 in assay [1] is greater than 10 µM; in assay [2] it was greater than 10 µM; in assay [3], greater than 10 µM; in [4], greater than 30 µM; in assay [5], greater than 10 µM; in assay [6], greater than 30 µM. The concentration at half-maximal activity (AC50) in assay [7], in assay [8], in assay [9] and in [10] was greater than 10 µM each time.

Take `CC(C)NCC1CCc2cc(CO)c([N+](=O)[O-])cc2N1` (centres undefined) [OXAMNIQUINE]: the AC50 in assay [1] was greater than 10 µM; in assay [2], greater than 10 µM; in [3] it was 13.4 µM; in [4] it was greater than 10 µM; in [5], greater than 10 µM; in assay [6] it was greater than 30 µM. Moreover, the AC50 in [7] is greater than 10 µM; in [8] it was 7.4 µM; in assay [9], greater than 10 µM; in assay [10] it was greater than 10 µM.

For `CN(C)[C@@H]1C(O)=C(C(N)=O)C(=O)[C@@]2(O)C(O)=C3C(=O)c4c(O)ccc(Cl)c4[C@@H](O)[C@H]3C[C@@H]12` [DEMECLOCYCLINE], the AC50 in assay [1] is greater than 10 µM; in assay [2] it was greater than 10 µM; in assay [3], greater than 10 µM; in [4] it was greater than 10 µM; in assay [5], greater than 10 µM; in assay [6], greater than 30 µM. In addition, the AC50 in assay [7] is greater than 10 µM; in [8], greater than 30 µM; in assay [9] it was greater than 10 µM; in assay [10] it was greater than 10 µM.

For `NS(=O)(=O)c1cc(-c2nnn[nH]2)c(NCc2cccs2)cc1Cl` [AZOSEMIDE], the AC50 in assay [1], in [2], in [3], in assay [4], in [5] and in assay [6] was greater than 30 µM each time. The AC50 in assay [7], in assay [8], in assay [9] and in assay [10] was greater than 30 µM throughout.

`Nc1ccc(/N=N/c2ccccc2)c(N)n1` [PHENAZOPYRIDINE]: the AC50 in [1] was greater than 30 µM; in [2] it was greater than 30 µM; in assay [3], 3.3 µM; in [5] it was greater than 30 µM; in assay [6], 3.3 µM; in assay [7], greater than 30 µM. Besides, the AC50 in assay [8] is 3.1 µM; in [9], greater than 30 µM; in [10], greater than 30 µM.

Consider `CO/N=C(\C(=O)N[C@@H]1C(=O)N2C(C(=O)OCOC(=O)C(C)(C)C)=C(C)CS[C@H]12)c1csc(N)n1`, for which the AC50 in [1], in [2], in assay [3], in assay [5], in [6] and in assay [8] was greater than 30 µM throughout. The AC50 in assay [9] and in [10] was greater than 30 µM in each case.

In the case of `COCC1=C(C(=O)OC(C)OC(=O)OC(C)C)N2C(=O)[C@@H](NC(=O)/C(=N\OC)c3csc(N)n3)[C@H]2SC1` (some centres undefined) [CEFPODOXIME PROXETIL], the AC50 in assay [1], in assay [2], in assay [3], in assay [5], in assay [6] and in assay [7] was greater than 30 µM in each case. For the same compound, the AC50 in assay [8], in [9] and in assay [10] was greater than 30 µM throughout.

`CC(=O)O[C@]1(C(C)=O)CC[C@H]2[C@@H]3C[C@H](C)C4=CC(=O)CC[C@]4(C)[C@H]3CC[C@@]21C` [MEDROXYPROGESTERONE ACETATE] gave an AC50 in [4] greater than 30 µM.

Regarding `O=C(O)c1cccc(-c2noc(-c3ccccc3F)n2)c1`, the AC50 in assay [4] was greater than 30 µM; in assay [7] it was greater than 10 µM.

With `C[N+](C)(C)CCOC(N)=O` [CARBAMOYLCHOLINE], the AC50 was greater than 10 µM in [1]; greater than 30 µM in assay [2]; greater than 10 µM in [3]; greater than 10 µM in assay [4]; greater than 30 µM in assay [5]; greater than 10 µM in [6]. The figures for the AC50 in [8], in [9] and in assay [10] were greater than 30 µM, greater than 10 µM and greater than 30 µM, respectively.
